In patent publication US20250099517A1, “Use of Lactobacillus reuteri Y7 strain for prevention or treatment of ocular diseases” (Taipei Medical University, priority 2023, published 2025):

Experiments:
[1] = body weights of mice during the experiment; assay type: in vivo, C57BL/6 mice; conditions: LU, lutein 6.15 mg/kg bw oral daily, blue light, mean±S.E.M., in g (unit assumed)
Description: In the present invention, six-week-old male C57BL/6 mice were placed in a breeding cage in which the following feeding conditions were kept: temperature, 22±2° C., humidity, 55±5%, and the light-dark cycle of 12-hour light and 12-hour dark. The mice were fed with fodders at the adaptive phase for one week; general solid fodders for test animals were administered to mice of the control group and mice during the adaptive phase. The initial day was defined as Day 0 when the adaptive phase for the mice was over. From the next week, the mice were interfered with samples under test and exposed to blue light. During the experiments, the mice were monitored for weights as well as water intakes and checked for any physiological change. The data for experiments through electroretinography (ERG), fndus photography (FP), fundus fluorescein angiograph (FFA), spectral-domain optical coherence tomography (SD-OCT) and intraocular pressure (IOP) were collected at Day 0, Day 21 and Day 35, as shown in FIG. 1 for the experimental process. The C57BL/6 mice, which weighed between 23 and 25 g, were divided into seven groups randomly. In each group, the six mice induced by blue light successfully were incorporated in experiments. The samples dissolved in deuterium-depleted water (DDW) were fed to mice through oral tubes once a day. The groups were named and introduced as follows: • (1) Solvent not classified group (NC): The mice were fed with 0.2 ml deuterium-depleted water (DDW) through tubes; • (2) Negative control group (Blue light (BL)): The mice were fed with 0.2 ml deuterium-depleted water (DDW) through tubes and exposed to blue light; • (3) Low-dosage Y7 probiotics group […]): The mice were fed with low-dosage Y7 probiotics (probiotic counts of 1.0×10^8 CFU/ml dissolved in 0.2 ml DDW per day) and exposed to blue light; • (4) High-dosage Y7 probiotics group […]): The mice were fed with high-dosage Y7 probiotics (probiotic counts of 1.0×10^9 CFU/ml dissolved in 0.2 ml DDW per day) and exposed to blue light; • (5) Positive control group (lutein (LU)): The mice were fed with lutein and exposed to blue light. The recommended human dosage of lutein is 30 mg. The mouse cage (48×25×20 cm) placed inside a stainless ventilated box was equipped with blue light boards as blue light sources around and above. In the experiment of animals exposed to blue light, six-week-old mice staying in the mouse cage were fed with drinking water as well as fodders and exposed to 400 Lux blue light illumination under the light-dark cycle of 12-hour light and 12-hour dark. The experiment was aimed at causing mice' late dry macular disease induced by chronic light injuries for simulating a human being's macular disease after long-term exposure to short-wavelength blue light from 3C products in daily life. All data written as the form of mean±standard error of the mean (S.E.M.) were used in the statistical analysis through the one-way ANOVA and the Newman-Keuls test; p<0.05 denoted statistical difference. In the experiment, the software for the statistical analysis was Graph pad Prism (v9.2.0). The data such as food intake, water intake, body weight, organ weight and other clinical examination data were analyzed with the one-way ANOVA.

catalase (CAT) = assay: serum antioxidant enzyme activity by ELISA: CAT; assay type: in vivo, C57BL/6 mice
Description: The C57BL/6 mice, which weighed between 23 and 25 g, were divided into seven groups randomly. In each group, the six mice induced by blue light successfully were incorporated in experiments. The samples dissolved in deuterium-depleted water (DDW) were fed to mice through oral tubes once a day. The groups were named and introduced as follows: • (1) Solvent not classified group (NC): The mice were fed with 0.2 ml deuterium-depleted water (DDW) through tubes; • (2) Negative control group (Blue light (BL)): The mice were fed with 0.2 ml deuterium-depleted water (DDW) through tubes and exposed to blue light; • (3) Low-dosage Y7 probiotics group (Y7L): The mice were fed with low-dosage Y7 probiotics (probiotic counts of 1.0×10^8 CFU/ml dissolved in 0.2 ml DDW per day) and exposed to blue light; • (4) High-dosage Y7 probiotics group (Y7H): The mice were fed with high-dosage Y7 probiotics (probiotic counts of 1.0×10^9 CFU/ml dissolved in 0.2 ml DDW per day) and exposed to blue light; • (5) Positive control group (lutein (LU)): The mice were fed with lutein and exposed to blue light. The recommended human dosage of lutein is 30 mg.
The mouse cage (48×25×20 cm) placed inside a stainless ventilated box was equipped with blue light boards as blue light sources around and above. […]
The performance of antioxidant enzymes in serums was analyzed through the enzyme-linked immunosorbent assay (ELISA).

Molecule | body weights of mice ([1]; Day 0) | body weights of mice ([1]; Day 7) | body weights of mice ([1]; Day 14) | body weights of mice ([1]; Day 21) | body weights of mice ([1]; Day 28) | body weights of mice ([1]; Day 35) | activity of catalase (CAT) compared with the BL group (catalase (CAT); Y7H high-dosage group) | activity of catalase (CAT) compared with the BL group (catalase (CAT); Y7L low-dosage group)
CC1=C[C@H](O)CC(C)(C)[C@H]1/C=C/C(C)=C/C=C/C(C)=C/C=C/C=C(C)/C=C/C=C(C)/C=C/C1=C(C)C[C@@H](O)CC1(C)C [lutein, reference compound] | 21.25 ± 1.52 | 21.35 ± 1.97 | 22.12 ± 2.09 | 22.12 ± 2.09 | 22.40 ± 1.97 | 22.88 ± 2.86 | – | –
Lactobacillus reuteri Y7 [Y7 probiotics] | – | – | – | – | – | – | increased significantly | increased significantly
